In PubChem BioAssay AID330 (DTP/NCI, 2004):
“And” between values parts separate entries of the source, which are not always exact repeats. Equal entries are not always repeated. Toxic doses and inconclusive results are not listed. The calls were made as follows: active = survival T/C of 150% or more; inactive = T/C below 125% in these data.

Tested on: P388 leukemia ip, CD2F1 mice, survival T/C
Experiment: NCI In Vivo Anticancer Drug Screen. Data for tumor model P388 Leukemia (intraperitoneal) in CD2F1 (CDF1) mice
Conditions: endpoint: median survival time, higher = longer survival
Summary of the method: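 Mice carrying the transplanted tumor received test compound or vehicle. Survival was recorded in each group, and the value is the treated-group measurement divided by that of the vehicle-treated control group.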

[1] = dose: 100.0 mg/kg/injection, schedule: Q01DX001 (ip), vehicle: Klucel (hydroxypropylcellulose) (HPC)
[2] = dose: 200.0 mg/kg/injection, schedule: Q01DX001 (ip), vehicle: Klucel (hydroxypropylcellulose) (HPC)
[3] = dose: 400.0 mg/kg/injection, schedule: Q01DX001 (ip), vehicle: Klucel (hydroxypropylcellulose) (HPC)
[4] = dose: 60.0 mg/kg/injection, schedule: Q01DX005 (ip), vehicle: saline with Tween-80
[5] = dose: 120.0 mg/kg/injection, schedule: Q01DX005 (ip), vehicle: saline with Tween-80
[6] = dose: 240.0 mg/kg/injection, schedule: Q01DX005 (ip), vehicle: saline with Tween-80
[7] = dose: 25.0 mg/kg/injection, schedule: Q04DX003 (ip), vehicle: saline with Tween-80
[8] = dose: 50.0 mg/kg/injection, schedule: Q04DX003 (ip), vehicle: saline with Tween-80
[9] = dose: 100.0 mg/kg/injection, schedule: Q01DX009 (ip), vehicle: saline with Tween-80
[10] = dose: 50.0 mg/kg/injection, schedule: Q01DX009 (ip), vehicle: Klucel (hydroxypropylcellulose) (HPC)
[11] = dose: 100.0 mg/kg/injection, schedule: Q01DX009 (ip), vehicle: Klucel (hydroxypropylcellulose) (HPC)
[12] = dose: 50.0 mg/kg/injection, schedule: Q01DX005 (ip), vehicle: Klucel (hydroxypropylcellulose) (HPC)
[13] = dose: 100.0 mg/kg/injection, schedule: Q01DX005 (ip), vehicle: Klucel (hydroxypropylcellulose) (HPC)
[14] = dose: 200.0 mg/kg/injection, schedule: Q01DX005 (ip), vehicle: Klucel (hydroxypropylcellulose) (HPC)
[15] = dose: 15.0 mg/kg/injection, schedule: Q01DX005 (ip), vehicle: saline with Tween-80
[16] = dose: 100.0 mg/kg/injection, schedule: Q04DX003 (ip), vehicle: saline
[17] = dose: 25.0 mg/kg/injection, schedule: Q04DX003 (ip), vehicle: saline

Measured: T/C

O=c1c(CCl)c(-c2ccc([N+](=O)[O-])cc2)sc2ccccc12
inactive: dose: 100.0 mg/kg/injection, schedule: Q04DX002 (ip), vehicle: saline with Tween-80 100 % of control | dose: 200.0 mg/kg/injection, schedule: Q04DX002 (ip), vehicle: saline with Tween-80 98 % of control | dose: 400.0 mg/kg/injection, schedule: Q04DX002 (ip), vehicle: saline with Tween-80 92 % of control

O=C1Cc2ccccc2N1C(=O)c1ccccc1Br
inactive: [1] 106 % of control | [2] 98 % of control | [3] 90 % of control

O=C(/C=C/c1ccccc1)/C=C/c1ccccc1 (tested in a mixture with another compound)
inactive: [4] 98 % of control | [5] 91 % of control | [6] 91 % of control

Cc1cc(NCc2ccccc2)c(C)c2c1C=NCC2
inactive: dose: 12.5 mg/kg/injection, schedule: Q01DX009 (ip), vehicle: distilled water + Tween-80 97 % of control | dose: 25.0 mg/kg/injection, schedule: Q01DX009 (ip), vehicle: distilled water + Tween-80 97 % of control | dose: 50.0 mg/kg/injection, schedule: Q01DX009 (ip), vehicle: distilled water + Tween-80 106 % of control | dose: 100.0 mg/kg/injection, schedule: Q01DX009 (ip), vehicle: distilled water + Tween-80 92 % of control | dose: 200.0 mg/kg/injection, schedule: Q01DX009 (ip), vehicle: distilled water + Tween-80 87 % of control

CCOC(=O)CCC(=O)N(CCCNc1c2ccccc2nc2c(OC)cccc12)CCCNc1c2ccccc2nc2c(OC)cccc12
inactive: dose: 1.25 mg/kg/injection, schedule: Q01DX009 (ip), vehicle: water 111 % of control | dose: 2.5 mg/kg/injection, schedule: Q01DX009 (ip), vehicle: water 116 % of control | dose: 20.0 mg/kg/injection, schedule: Q01DX009 (ip), vehicle: water 97 % of control

S=c1nn[nH]n1-c1ccccc1
inactive: [7] 100 % of control | dose: 50.0 mg/kg/injection, schedule: Q01DX009 (ip), vehicle: saline with Tween-80 110 % of control | [8] 100 % of control | [9] 110 % of control | dose: 100.0 mg/kg/injection, schedule: Q04DX003 (ip), vehicle: saline with Tween-80 100 % of control and 91 % of control

CC(C)(C)C(=O)NC(OC(NC(=O)C(C)(C)C)C(=O)C(C)(C)C)C(=O)C(C)(C)C (centres undefined)
inactive: [4] 97 % of control | [5] 99 % of control | [6] 105 % of control

COc1cc2c(cc1-c1coc3cc(OCC=C(C)C)ccc3c1=O)OCO2
inactive: dose: 9.0 mg/kg/injection, schedule: Q01DX005 (ip), vehicle: Klucel (hydroxypropylcellulose) (HPC) 96 % of control | dose: 18.0 mg/kg/injection, schedule: Q01DX005 (ip), vehicle: Klucel (hydroxypropylcellulose) (HPC) 94 % of control | dose: 36.0 mg/kg/injection, schedule: Q01DX005 (ip), vehicle: Klucel (hydroxypropylcellulose) (HPC) 87 % of control | dose: 72.0 mg/kg/injection, schedule: Q01DX005 (ip), vehicle: Klucel (hydroxypropylcellulose) (HPC) 92 % of control

O=c1[nH]cnc2c1nc(Br)n2C1OC(CO)C(O)C1O (centres undefined)
inactive: dose: 6.25 mg/kg/injection, schedule: Q01DX009 (ip), vehicle: Klucel (hydroxypropylcellulose) (HPC) 94 % of control | dose: 12.5 mg/kg/injection, schedule: Q01DX009 (ip), vehicle: Klucel (hydroxypropylcellulose) (HPC) 94 % of control | dose: 25.0 mg/kg/injection, schedule: Q01DX009 (ip), vehicle: Klucel (hydroxypropylcellulose) (HPC) 94 % of control | [10] 97 % of control | [11] 94 % of control

O=S1(=O)OC2(CCCCC2)c2ccccc21
inactive: [10] 106 % of control | [11] 108 % of control | dose: 200.0 mg/kg/injection, schedule: Q01DX009 (ip), vehicle: Klucel (hydroxypropylcellulose) (HPC) 108 % of control | dose: 400.0 mg/kg/injection, schedule: Q01DX009 (ip), vehicle: Klucel (hydroxypropylcellulose) (HPC) 109 % of control

Cc1ccc2c(c1)nc(N)n2N
inactive: [1] 100 % of control | [2] 98 % of control | [3] 89 % of control

COc1c(Br)c2c(c([N+](=O)[O-])c1OC)C(=O)OC2
inactive: dose: 25.0 mg/kg/injection, schedule: Q01DX005 (ip), vehicle: Klucel (hydroxypropylcellulose) (HPC) 103 % of control | [12] 96 % of control | [13] 96 % of control | [14] 104 % of control

O=C(N/N=C/c1ccccc1O)c1cc2ccccc2cc1O
inactive: dose: 7.5 mg/kg/injection, schedule: Q01DX005 (ip), vehicle: saline with Tween-80 92 % of control | [15] 88 % of control

CCCC(O)C[N+](=O)[O-] (centres undefined)
inactive: [16] 109 % of control | dose: 200.0 mg/kg/injection, schedule: Q04DX003 (ip), vehicle: saline 109 % of control | dose: 400.0 mg/kg/injection, schedule: Q04DX003 (ip), vehicle: saline 118 % of control

Cn1c2c(c(=O)c3cc(O)ccc31)CC(C(C)(C)O)O2 (centres undefined)
inactive: [12] 104 % of control | [13] 105 % of control | [14] 104 % of control

O=C(Nc1cccc(C(=O)Nc2ccc(C3=NCCN3)cc2)c1)c1ccc(C2=NCCN2)cc1
inactive: dose: 6.25 mg/kg/injection, schedule: Q01DX009 (ip), vehicle: saline 118 % of control | dose: 6.25 mg/kg/injection, schedule: Q04DX003 (ip), vehicle: saline 100 % of control | dose: 12.5 mg/kg/injection, schedule: Q01DX009 (ip), vehicle: saline 118 % of control | dose: 12.5 mg/kg/injection, schedule: Q04DX003 (ip), vehicle: saline 100 % of control | [17] 100 % of control

CCNC(C)(C)C(SSSC(c1ccc(C(F)(F)F)cc1)C(C)(C)NCC)c1ccc(C(F)(F)F)cc1 (centres undefined)
inactive: [17] 107 % of control | dose: 50.0 mg/kg/injection, schedule: Q04DX003 (ip), vehicle: saline 107 % of control | [16] 103 % of control

c1cc2c(c(-c3nccc4c3CCCC4)n1)CCCC2
inactive: dose: 50.0 mg/kg/injection, schedule: Q01DX005 (ip), vehicle: saline with Tween-80 109 % of control | dose: 100.0 mg/kg/injection, schedule: Q01DX005 (ip), vehicle: saline with Tween-80 109 % of control | dose: 200.0 mg/kg/injection, schedule: Q01DX005 (ip), vehicle: saline with Tween-80 93 % of control

C[N-]N(C)C(=O)[S-].C[N-]N(C)C(=O)[S-].C[N-]N(C)C(=O)[S-].[Co]
inactive: [7] 103 % of control | [8] 103 % of control

CN(C)CCC(=O)C(=Cc1ccccc1Cl)C(=O)CCN(C)C
inactive: dose: 60.0 mg/kg/injection, schedule: Q01DX005 (ip), vehicle: saline 105 % of control | dose: 120.0 mg/kg/injection, schedule: Q01DX005 (ip), vehicle: saline 106 % of control | dose: 240.0 mg/kg/injection, schedule: Q01DX005 (ip), vehicle: saline 105 % of control

Cc1ccc2c(c1)nc(C)c(=O)n2CC1CCCN2CCCC[C@H]12 (some centres undefined)
inactive: [15] 97 % of control | dose: 30.0 mg/kg/injection, schedule: Q01DX005 (ip), vehicle: saline with Tween-80 97 % of control | [4] 97 % of control

CN(Cc1ccccc1)C(=O)C(=O)c1c[nH]c2ccccc12
inactive: [9] 86 % of control | dose: 200.0 mg/kg/injection, schedule: Q01DX009 (ip), vehicle: saline with Tween-80 90 % of control
